This is an account of results in US20240099998A1, “COMPOSITIONS AND METHODS FOR INDUCING DEFECATION” (priority 2021, published 2024).

The test system of assay [1] is anesthetized naïve (spinal intact) rats, rectal pressure. Briefly: Rectal (colorectal) pressure recording via balloon catheter after intrarectal dosing in anesthetized spinal intact rats. The assay is classed as in vivo, rat. As to the method: General: In vivo studies were performed in anesthetized, spinally intact rats (N=10). Adult male Sprague Dawley rats (Charles River, 250-300 g) were housed at an AAALAC approved facility in cages (2-3/cage) with free access to water and food in a colony room that was maintained on a 12 hr light/12 hr dark cycle 1-2 weeks before the experiment. Rats were anesthetized with urethane (1.2-1.4 g/kg subcutaneous injection). Surgical procedures were then performed with the addition of isoflurane anesthesia (0.05-1.5% in O2) as the full anesthetic effect of urethane takes about 1-2 hrs.
A catheter filled with heparinized saline (30 unit/ml) was inserted into the carotid artery and connected to a pressure transducer for measurement of blood pressure and heart rate. A catheter was inserted into the jugular vein for intravenous (i.v.) administration of drugs.
Colorectal Contractility: Colorectal pressures were measured via a latex balloon catheter (length 2-3 cm) inserted (˜3-4 cm) into the distal colorectal region. The catheter was connected to a pressure monitoring system. The pressure in the balloon catheter was slowly increase to 10-15 mmHg by infusing saline (0.2-0.5 ml total volume) and this pressure was maintained throughout the study. This allowed drug induced changes in colorectal pressure to be monitored. Parameters measured include peak colorectal pressure response, duration of time above baseline activity (in the 1st 5 min after drug administration), area under the curve (measured during the 1st 5 min after drug administration) and the number of contractile events after vehicle and drug administration.
Dosing: Intrarectal TRPV1 agonists were administered in a dose range of 0.01-2% wt/vol. Nonivamide, OEA, OLDA and capsaicin were dissolved in 95% ethanol at 20-100 mg/mL and then diluted to 0.01-2% with the vehicle (Tween-80:95% ethanol:saline in a ratio of 10:10:80) and administered intrarectally as a solution using a small gauge tube, or a solution soaked cotton wool plug, to mimic a suppository-like dosage form.
Methods: The TRPV1 receptor agonist nonivamide was administered to anesthetized spinal intact male rats (N=6) instrumented for rectal pressure recording via a balloon catheter inserted into the rectum 3-4 cm from the anus. A 0.1% solution (0.2 mL of a 1 mg/ml solution in Tween-80:ethanol:saline (ratio 10:10:80)) of nonivamide was administered via a 20 gauge feeding tube that was inserted ˜2 cm into the rectum. For comparison, vehicle (Tween-80:ethanol:saline in a ratio of 10:10:80) was administered using the same techniques.
Methods: The TRPV1 receptor agonist nonivamide was administered to anesthetized spinal intact male rats instrumented for rectal pressure recording via a balloon catheter inserted into the rectum 3-4 cm from the anus. A 1% solution (0.2 mL of a 10 mg/ml solution in Tween-80:ethanol:saline (ratio 10:10:80)) of nonivamide was administered via a 20 gauge feeding tube that was inserted 2-3 cm into the rectum.
Methods: Nonivamide was administered to a naive anesthetized male rat instrumented for rectal pressure recording via a balloon catheter inserted into the rectum 2-4 cm from the anus. To mimic a suppository dosage form, nonivamide (1%) was administered via a fluid-soaked small cotton wool plug. The cotton wool plug was placed into the anal canal at the distal rectum.
Methods: OAE (N=4) was administered to anesthetized naïve male rats (N=5) instrumented for rectal pressure recording via a balloon catheter inserted into the rectum 3-4 cm from the anus. OEA was administered as 0.01-0.2% solution (0.2 mL of a […] solution in Tween-80:95% ethanol:saline (ratio 10:10:80)) via a small cotton wool plug soaked in 0.2 mL of solution, to mimic a suppository dosage form, that was inserted into the rectum. For comparison, vehicle was administered to all rats using the same techniques. […]

The subject of assay [2] is conscious spinal intact rats, defecation. Put plainly: Defecation in conscious rats monitored in metabolism cages after intrarectal dosing. The assay is classed as in vivo, rat. How it is done:
Defecation in awake animals was monitored in metabolism cages. Animals were habituated to handling and the metabolism cages on 2-4 occasions prior to dosing and were then randomized to a treatment arm. Rats were weighed and placed into metabolism cages for 10 min prior to intrarectal administration of vehicle or TRPV1 agonist. The number of fecal pellets and timing of events were recorded by trained personnel that were blinded to treatment. Fecal weight was weighed at 20 min post dosing.
Defecation in conscious rats was monitored in metabolism cages. Rats were habituated to handling and the metabolism cages on 2-4 occasions before dosing, then randomized to the treatment arm. Rats were weighed and placed into metabolism cages for 10 min prior to receiving an intrarectal dose of vehicle or capsaicin. Since manual stimulation during intrarectal dosing in conscious rats can induce defecation, palpation of the distal rectum was performed to remove any fecal pellets located in the region of the anal sphincter. […] Once the anal sphincter had ceased contracting/relaxing (15-90 s) a fine catheter (22 G soft/flexible blunt tip catheter) was used to dose the vehicle or capsaicin, as this method produced little manual stimulation. Capsaicin was prepared as a 0.01, 0.1 or 1% solution (0.1, 1 or 10 mg/ml in tween-80/ethanol/saline (ratio of 10/10/80) or vehicle. Dose volumes were 0.1 mL and administered via the catheter inserted ˜1 inch through the anus into the rectum. The number of fecal pellets and timing of events were recorded by trained personnel blinded to the treatment. Fecal weight was recorded at 20 min post dosing.

Assay [3] relates to anesthetized acute T9-transected SCI rat, rectal pressure. Briefly: Rectal pressure recording in anesthetized acute spinal cord injured (SCI) rat. The settings on record: cotton ball suppository soaked in 50 uL of 0.2% solution, acute T9-transected SCI female rat. The assay is classed as in vivo. How it is done: For the acute SCI model, animals were anesthetized with urethane (1.0-1.4 g/kg subcutaneous injection), the skin and muscle on the dorsal side at the level of the thoracic vertebrae were incised, and the spinal cord was carefully exposed by a laminectomy and transected at T8-T10 spinal level. Gelfoam^R was placed at the incision site and the muscle and skin overlying the vertebrae were closed with wound clips. The spinal cord was transected at least 60 min before starting the experimental protocol.
For all rectal contractility studies, animals were anesthetized with urethane (1.0-1.4 g/kg subcutaneous injection). […]
Rectal Contractility: Rectal pressures were measured via a latex balloon catheter (length 1.5-4 cm) inserted (˜4 cm) into the distal rectal region. […] Parameters measured included peak rectal pressure response, duration of time above baseline activity (in the 1st 5 min after drug administration), area under the curve (measured during the 1st 5 min after drug administration) and the number of contractile events after vehicle and drug administration.
Methods: Capsaicin was administered to 2 anesthetized female rats instrumented for rectal pressure recording via a balloon catheter inserted into the rectum 2-4 cm from the anus. […] Top and bottom traces in FIG. 9 were recorded from individual female rats.

For a further assay, the system named is conscious dogs, colon. The settings on record: intracolonic administration; cited from earlier work.
The subject of assay [4] is rectal afferent terminals. The conditions noted are these: human subjects; cited from earlier work.
The mark [5] stands for this setting: 0.2% solution, 0.05-0.32 mL intrarectal.
The mark [6] stands for this setting: cotton ball suppository soaked in 50 uL of 0.2% solution, spinal intact naïve female rat.
Setting [7] is: cotton wool plug (1% in FIG. 7A), intrarectal, N=3.
[8] abbreviates: intrarectal solution, conscious rats.
[9] abbreviates: 0.1% solution, 0.2 mL intrarectal.
Setting [10] is: 1% solution, 0.2 mL intrarectal.
Setting [11] is: 0.01-0.2% solution, cotton wool plug soaked in 0.2 mL, intrarectal.
Where [12] appears, read: cotton wool plug soaked in 0.2 mL of 0.2% solution.
Where [13] appears, read: 0.2%, cotton wool plug soaked in 0.2 mL, N=1.

For the compound `COc1cc(CNC(=O)CCCC/C=C/C(C)C)ccc1O` [Capsaicin], in assay [1] (setting [5]), the “duration of rectal pressure increase” value stood at 5 min and the “onset time of rectal pressure increase” value was in the range of 1 to 2 min. In addition, the “rats with transient rectal pressure increase” value in assay [1] (0.2% solution, 0.05-0.32 mL intrarectal via PE50 tube, 4 males and 1 female) is on record as 5 of 5. Further, the peak colorectal pressure in assay [1] (1% soaked cotton wool plug, FIG. 7A, example of one male rat) is listed as approximately 40 mmHg. For the same compound, in assay [1] (setting [6]), the “duration of rectal pressure increase” value is on record as less than 5 min and the “onset of rectal pressure increase” value is reported as less than 2 min. Moreover, in assay [1] (setting [7]), the “duration of increase in colorectal pressure” value is less than 5 min and the “onset of increase in colorectal pressure” value is less than 1 min. Also, in assay [2] (1% solution, 0.1 mL intrarectal, 10 min after dosing, N=6, p<0.05), the “number of fecal pellets expelled compared to vehicle” value was “significantly increased”. For the same compound, the “total weight of fecal pellets expelled compared to vehicle” value in assay [2] (1% solution, 0.1 mL intrarectal, 20 min after dosing, N=6, p<0.05) was “significantly increased”. Also, in assay [2] (setting [8]), the “time to completion of defecation” value was not above 10 min and the time to defecation is not above 5 min. In assay [3], the “duration of rectal pressure increase” value is less than 5 min and the “onset of rectal pressure increase” value is given as less than 2 min. Also, the “effect on colon and defecation” value in the assay with conscious dogs, colon is reported as “initiate defecation”. Further, the “reported sensations after intrarectal administration” value in assay [4] was “an urge to defecate”.

In the case of `CCCCCCCCC(=O)NCc1ccc(O)c(OC)c1` [Nonivamide], in assay [1] (setting [9]), the “duration of rectal pressure increase” value is 5 min and the “onset time of rectal pressure increase” value is 1 to 2 min. In addition, in assay [1] (0.1% solution, 0.2 mL intrarectal via feeding tube, male rats), the “rats with transient rectal pressure increase” value is given as 6 of 6. In assay [1] (setting [10]), the “duration of rectal pressure increase” value is 5 to 10 min and the “onset time of rectal pressure increase” value lay in the range of 1 to 2 min. Also, in assay [1] (cotton wool plug soaked in 0.2 mL of 1% solution), the “rectal response: expulsion of balloon catheter” value (from here on “rectal response: expulsion”) was “sufficient to expel the balloon catheter”. In addition, the “onset of increase in rectal pressure” value in assay [1] (cotton wool plug soaked in 0.2 mL of 1% solution, 1 male rat) was not above 1 min.

As for `CCCCCCCC/C=C\CCCCCCCC(=O)NCCO` [OEA, Oleoylethanolamide], in assay [1] (setting [11]), the “duration of rectal pressure increase” value was in the range of 5 to 10 min and the “onset time of rectal pressure increase” value was 0.5 to 2 min. In assay [1] (setting [12]), the “defecation in anesthetized rat (FIG. 5)” value is listed as “defecation of fecal pellets” and the “rectal response: expulsion” value is listed as “sufficient to expel the balloon catheter”.

As for `CCCCCCCC/C=C\CCCCCCCC(=O)NCCc1ccc(O)c(O)c1` [OLDA, N-Oleoyldopamine], in assay [1] (setting [13]), the “duration of rectal pressure increase” value is given as 5 min and the “onset time of rectal pressure increase” value fell in the range of 0.5 to 2 min. Also, in assay [1] (setting [12]), the “rectal response: expulsion” value was “sufficient to expel the balloon catheter”.
